One may read the pIC50 as the negative decadic logarithm of the IC50, by convention in mol/L. As usually defined, the inhibition is the change of the read-out against control, counted positive when it falls. Low readings indicate a response near the control, high ones a response far below the control. Usually Tmax stands for the time at which the peak concentration occurs. What is called half-life is the time in which the quantity being followed falls by half. A high value points to slow decline. As a reminder, the Cmax is the peak of the concentration-time curve. One may read the AUC(0-inf) as the area under the concentration-time curve extrapolated to infinity. In general, MRT inf refers to a mean duration of stay, worked out from the concentration-time curve.

This note sets out measurements from ChEMBL document CHEMBL5614401 (Eur J Med Chem, 2024).

Series [1] concerns the target T1, Solute carrier family 22 member 12 (Homo sapiens, UniProt Q96S37).
T1 sequence (Q96S37 whole entry): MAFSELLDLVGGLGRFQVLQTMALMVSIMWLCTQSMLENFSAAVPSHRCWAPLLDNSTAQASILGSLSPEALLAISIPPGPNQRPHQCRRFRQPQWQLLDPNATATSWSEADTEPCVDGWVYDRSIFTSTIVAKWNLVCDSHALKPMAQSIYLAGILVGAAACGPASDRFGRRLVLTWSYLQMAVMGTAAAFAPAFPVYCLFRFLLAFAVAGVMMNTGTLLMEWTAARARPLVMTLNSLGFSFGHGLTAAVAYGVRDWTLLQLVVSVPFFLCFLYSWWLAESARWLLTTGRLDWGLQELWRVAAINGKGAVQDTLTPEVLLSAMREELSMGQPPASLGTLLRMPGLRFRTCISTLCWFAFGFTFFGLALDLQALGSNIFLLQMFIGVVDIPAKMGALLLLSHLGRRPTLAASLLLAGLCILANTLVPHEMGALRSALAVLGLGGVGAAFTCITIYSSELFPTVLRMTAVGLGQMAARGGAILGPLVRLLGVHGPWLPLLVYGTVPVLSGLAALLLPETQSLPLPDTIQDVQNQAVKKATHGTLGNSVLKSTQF
The experiment in a line: Inhibition of URAT1 (unknown origin).

Series [2] is described as follows: Renal toxicity in potassium oxonate-induced male Kunming mouse model assessed as reduction in CR level in serum at 10 mg/kg,po via gavage administered 1 hr post-potassium oxonate challenge and measured after 7 days on day 7 potassium oxonate injected after 12 hrs fasting and measured followed by 1.5 hrs of compound administration by biochemical analyzer. It is filed as organism-based. As to conditions: in vivo, 168 h, time 7 day.

Series [3] concerns Mus musculus. The experiment in a line: Anti-hyperuricemic activity against potassium oxonate-induced male Kunming mouse model assessed as increase in urine uric acid level at 10 mg/kg, po via gavage administered 1 hr post-potassium oxonate challenge and measured after 7 days on day 7 potassium oxonate injected after 12 hrs fasting and measured followed by 1.5 hrs of compound administration (reference value: 481.6 microM). The format is functional. The note with it: time 7 day.

Series [4] has as its target T2, Solute carrier family 2, facilitated glucose transporter member 9 (Homo sapiens, UniProt Q9NRM0).
T2 sequence (Q9NRM0 whole entry): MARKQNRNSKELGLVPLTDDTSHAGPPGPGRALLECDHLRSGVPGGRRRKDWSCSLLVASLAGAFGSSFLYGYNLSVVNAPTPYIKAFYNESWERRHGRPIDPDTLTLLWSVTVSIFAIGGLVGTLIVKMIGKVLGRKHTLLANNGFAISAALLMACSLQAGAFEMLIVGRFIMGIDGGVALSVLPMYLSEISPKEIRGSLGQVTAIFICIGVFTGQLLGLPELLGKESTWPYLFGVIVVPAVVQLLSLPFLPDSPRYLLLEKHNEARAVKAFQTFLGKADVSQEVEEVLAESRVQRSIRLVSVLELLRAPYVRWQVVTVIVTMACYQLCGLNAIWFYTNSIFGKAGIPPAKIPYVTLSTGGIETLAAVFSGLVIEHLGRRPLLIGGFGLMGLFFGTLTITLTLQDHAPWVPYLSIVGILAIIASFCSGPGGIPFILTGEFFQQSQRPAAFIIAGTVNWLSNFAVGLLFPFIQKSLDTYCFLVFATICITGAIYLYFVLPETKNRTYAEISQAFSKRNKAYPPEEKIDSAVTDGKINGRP
Kind of series: Inhibition of GLUT9 (unknown origin) overexpressed in uric acid-induced HEK293 cells by patch clamp analysis. It is filed as cell-based. On the technique in general: The patch-clamp technique gives a direct electrical read-out from membranes.

Series [5] addresses T1, Solute carrier family 22 member 12. The experiment in a line: Inhibition of human URAT1 transfected in HEK293 cells by measuring 14C-uric acid uptake preincubated for 30 mins followed by 14--uric acid addition and measured after 15 mins by liquid scintillation counter analysis. The format is cell-based.
Series [6] relates to Mus musculus. Kind of series: Anti-hyperuricemic activity against potassium oxonate-induced male Kunming mouse model assessed as reduction in serum uric acid level at 10 mg/kg, po via gavage administered 1 hr post-potassium oxonate challenge and measured after 7 days on day 7 potassium oxonate injected after 12 hrs fasting and measured followed by 1.5 hrs of compound administration. It is filed as functional. The note with it: time 7 day.

The subject of series [7] is Mus musculus. The experiment in a line: Anti-hyperuricemic activity against potassium oxonate-induced male Kunming mouse model assessed as alleviation of shrinkage in kidney at 10 mg/kg, po via gavage administered 1 hr post-potassium oxonate challenge and measured after 7 days on day 7 potassium oxonate injected after 12 hrs fasting and measured followed by 1.5 hrs of compound administration by H and E staining based analysis. As to conditions: time 7.0 day. It is filed as functional, organism-based.

Series [8] addresses T3, Solute carrier family 2, facilitated glucose transporter member 9 (Homo sapiens) (UniProt Q9NRM0).
T3 sequence (whole entry): T2 sequence (Q9NRM0 whole entry)
Kind of series: Inhibition of GLUT9 (unknown origin) overexpressed in uric acid-induced HEK293 cells at 25 uM by patch clamp analysis relative to control. It is filed as cell-based.

Series [9] is described as follows: Renal toxicity in potassium oxonate-induced male Kunming mouse model assessed as effect on kidney damage at 10 mg/kg,po via gavage administered 1 hr post-potassium oxonate challenge and measured after 7 days on day 7 potassium oxonate injected after 12 hrs fasting and measured followed by 1.5 hrs of compound administration. The format is organism-based. The note with it: in vivo, 168 h, time 7 day.

Series [10] is described as follows: Tmax in male Sprague-Dawley rat at 10 mg/kg, po measured after 24 hrs by LC-MS/MS analysis. It is filed as ADME, organism-based. The note with it: in vivo.
Series [11] relates to Mus musculus. The experiment in a line: Anti-hyperuricemic activity against potassium oxonate-induced male Kunming mouse model assessed as alleviation of renal tubule dilatation at 10 mg/kg, po via gavage administered 1 hr post-potassium oxonate challenge and measured after 7 days on day 7 potassium oxonate injected after 12 hrs fasting and measured followed by 1.5 hrs of compound administration by H and E staining based analysis. The format is functional, organism-based. The note with it: time 7.0 day.

Series [12] can be described thus: Cytotoxicity against human HK-2 cells assessed as cell viability at 100 uM incubated for 48 hrs by MTT assay relative to control. It is filed as toxicity, cell-based. The note with it: read-out: Activity.
Series [13] in a line: Half life in male Sprague-Dawley rat at 10 mg/kg, po measured after 24 hrs by LC-MS/MS analysis. The format is ADME, organism-based. As to conditions: in vivo.
Series [14] relates to Mus musculus. Kind of series: Anti-hyperuricemic activity against potassium oxonate-induced male Kunming mouse model assessed as alleviation of casts formation in kidney at 10 mg/kg, po via gavage administered 1 hr post-potassium oxonate challenge and measured after 7 days on day 7 potassium oxonate injected after 12 hrs fasting and measured followed by 1.5 hrs of compound administration by H and E staining based analysis. The format is functional, organism-based. The note with it: time 7.0 day.

Series [15] concerns Mus musculus. Kind of series: Anti-hyperuricemic activity against potassium oxonate-induced male Kunming mouse model assessed as alleviation of glomerular ischemia in kidney at 10 mg/kg, po via gavage administered 1 hr post-potassium oxonate challenge and measured after 7 days on day 7 potassium oxonate injected after 12 hrs fasting and measured followed by 1.5 hrs of compound administration by H and E staining based analysis. It is filed as functional, organism-based. The note with it: time 7.0 day.

Series [16] in a line: Cmax in male Sprague-Dawley rat at 10 mg/kg, po measured after 24 hrs by LC-MS/MS analysis. As to conditions: in vivo. The format is ADME, organism-based.
Series [17] in a line: AUC (0 to infinity) in male Sprague-Dawley rat at 10 mg/kg, po measured after 24 hrs by LC-MS/MS analysis. The format is ADME, organism-based. As to conditions: in vivo.
The nature of series [18]: Renal toxicity in potassium oxonate-induced male Kunming mouse model assessed as reduction in BUN level in serum at 10 mg/kg,po via gavage administered 1 hr post-potassium oxonate challenge and measured after 7 days on day 7 potassium oxonate injected after 12 hrs fasting and measured followed by 1.5 hrs of compound administration by biochemical analyzer. It is filed as organism-based. The note with it: in vivo, 168 h, time 7 day.

Series [19] relates to HK-2. Kind of series: Cytotoxicity against human HK-2 cells assessed as cell viability at <100 uM incubated for 24 hrs by MTT assay. The format is toxicity, cell-based. The note with it: hk-2, 24 h. Background: Formazan colour is commonly taken as a measure of viable cells.
Series [20] can be described thus: MRT (0 to infinity) in male Sprague-Dawley rat at 10 mg/kg, po measured after 24 hrs by LC-MS/MS analysis. The format is ADME, organism-based. As to conditions: in vivo.
Series [21] deals with T1, Solute carrier family 22 member 12. The experiment in a line: Inhibition of human URAT1 transfected in HEK293 cells by measuring 14C-uric acid uptake at 5 uM preincubated for 30 mins followed by 14--uric acid addition and measured after 15 mins by liquid scintillation counter analysis relative to control. The format is cell-based. The note with it: 0.25 h, time 45 min.

Series [22] relates to HK-2. The experiment in a line: Cytotoxicity against human HK-2 cells assessed as cell viability at 100 uM incubated for 48 hrs by MTT assay. The note with it: hk-2, 48 h. The format is toxicity, cell-based.

pIC50: −log10 of the molar value. Active and inactive are the calls of the source. The calls are words filed in the database; no cut-off is given here.

For `O=C(c1cc(Cl)c(O)c(Cl)c1)N1CS(=O)(=O)c2ccccc21` [DOTINURAD], in series [1], the negative-log IC50 (pIC50) was 7.40.

Take `C/C(=C\Cc1cccc2c1OC(c1ccc(Br)c3ccccc13)CC2=O)C(=O)O` (centres undefined): the Activity entry in series [2] is “Non-Toxic”; in [3], 642.1 µM; in series [6], 319.1 µM; in series [9], “Non-Toxic”; in series [18], “Non-Toxic”; in series [19], “Toxic”. Further, the pIC50 was 5.35 in series [4] and 6.80 in series [5]. The result in [7], in [11], in series [14] and in [15] was Active. In series [8], this compound came in with an inhibition of 91%. In series [10], the Tmax was found to be 1.15 h. In addition, the viability at 48 h, 100 µM in series [12] stood at 62.1%. In addition, the half-life in [13] is 7.88 h. For the same compound, in series [16], the peak level (Cmax) was 2250 ng/mL. Further, the total exposure AUC(0-inf) in [17] was found to be 18700 ng·h/mL. Besides, the mean residence time MRT inf in series [20] was found to be 10.2 h.

For `CC(C)=CCc1c(O)ccc2c1OC(c1ccc(O)cc1)CC2=O` (centres undefined), the inhibition at 5 µM in series [21] worked out at 93.3%. Also, the negative logarithm of the IC50 (pIC50) is 5.74 in series [4], 6.62 in series [5] and 6.66 in series [1]. For the same compound, in series [8], the inhibition is 95.5%. Moreover, the time to peak (Tmax) in series [10] was determined as 1.12 h. In [13], this compound gave a half-life of 6.01 h. In series [16], this compound registered a peak concentration (Cmax) of 1110 ng/mL. Moreover, the AUC(0-inf) in series [17] stood at 7460 ng·h/mL. The MRT inf in series [20] stood at 9.16 h.

In series [1], `CC(C)(Sc1ccncc1Cc1ccc(C#N)c2ccccc12)C(=O)O` had a pIC50 of 5.68.

`C/C(=C\Cc1cccc2c1OC(c1cccs1)CC2=O)C(=O)O` (centres undefined): the Activity entry was “Non-Toxic” in series [2]; “Non-Toxic” in series [22]; 648.21 µM in [3]; 317.1 µM in series [6]; “Non-Toxic” in series [9]; “Non-Toxic” in series [18]. Also, in [19], the Activity entry is “Toxic”. Moreover, the pIC50 in series [5] was 6.07. In addition, the outcome in series [7], in [11], in [14] and in series [15] was Active. Besides, the inhibition in series [8] is 22.7%. Further, the time to peak (Tmax) in [10] came out at 0.83 h. Moreover, in series [13], the half-life was 5.14 h. The compound also yielded a maximum concentration (Cmax) in series [16] of 2090 ng/mL. Further, the AUC(0-inf) in series [17] worked out at 14700 ng·h/mL. The MRT inf in [20] worked out at 11.4 h.
